The record followed here is ChEMBL document CHEMBL4715917 (Bioorg Med Chem, 2021).

The test system of test [1] is NCI-H1975. Kind of test: Cytotoxicity against human NCI-H1975 cells harboring T790M/L858R mutant assessed as reduction in cell viability after 72 hrs by MTT assay. In kind it is functional, cell-based. As to conditions: NCI-H1975, 72 h. For orientation: Tetrazolium assays rely on reduction of a dye to a coloured formazan, in cell work by metabolically active cells.

For test [2], the system named is A549. Kind of test: Cytotoxicity against human A549 cells harboring wild type EGFR assessed as reduction in cell viability after 72 hrs by MTT assay. In kind it is functional, cell-based. As to conditions: A549, 72 h.
Test [3] has as its target Epidermal growth factor receptor (Homo sapiens, UniProt P00533).
Description: Inhibition of recombinant wild type EGFR (696 to C terminal end) (unknown origin) using poly (Glu-Tyr) as substrate preincubated for 30 mins followed by substrate addition and measured after 30 mins by ELISA
For test [4], the target named is Epidermal growth factor receptor (Homo sapiens, UniProt P00533, L858R/T790M).
Epidermal growth factor receptor (Homo sapiens, UniProt P00533, L858R/T790M), sequence (P00533 25-1210 T790M/L858R limits assumed): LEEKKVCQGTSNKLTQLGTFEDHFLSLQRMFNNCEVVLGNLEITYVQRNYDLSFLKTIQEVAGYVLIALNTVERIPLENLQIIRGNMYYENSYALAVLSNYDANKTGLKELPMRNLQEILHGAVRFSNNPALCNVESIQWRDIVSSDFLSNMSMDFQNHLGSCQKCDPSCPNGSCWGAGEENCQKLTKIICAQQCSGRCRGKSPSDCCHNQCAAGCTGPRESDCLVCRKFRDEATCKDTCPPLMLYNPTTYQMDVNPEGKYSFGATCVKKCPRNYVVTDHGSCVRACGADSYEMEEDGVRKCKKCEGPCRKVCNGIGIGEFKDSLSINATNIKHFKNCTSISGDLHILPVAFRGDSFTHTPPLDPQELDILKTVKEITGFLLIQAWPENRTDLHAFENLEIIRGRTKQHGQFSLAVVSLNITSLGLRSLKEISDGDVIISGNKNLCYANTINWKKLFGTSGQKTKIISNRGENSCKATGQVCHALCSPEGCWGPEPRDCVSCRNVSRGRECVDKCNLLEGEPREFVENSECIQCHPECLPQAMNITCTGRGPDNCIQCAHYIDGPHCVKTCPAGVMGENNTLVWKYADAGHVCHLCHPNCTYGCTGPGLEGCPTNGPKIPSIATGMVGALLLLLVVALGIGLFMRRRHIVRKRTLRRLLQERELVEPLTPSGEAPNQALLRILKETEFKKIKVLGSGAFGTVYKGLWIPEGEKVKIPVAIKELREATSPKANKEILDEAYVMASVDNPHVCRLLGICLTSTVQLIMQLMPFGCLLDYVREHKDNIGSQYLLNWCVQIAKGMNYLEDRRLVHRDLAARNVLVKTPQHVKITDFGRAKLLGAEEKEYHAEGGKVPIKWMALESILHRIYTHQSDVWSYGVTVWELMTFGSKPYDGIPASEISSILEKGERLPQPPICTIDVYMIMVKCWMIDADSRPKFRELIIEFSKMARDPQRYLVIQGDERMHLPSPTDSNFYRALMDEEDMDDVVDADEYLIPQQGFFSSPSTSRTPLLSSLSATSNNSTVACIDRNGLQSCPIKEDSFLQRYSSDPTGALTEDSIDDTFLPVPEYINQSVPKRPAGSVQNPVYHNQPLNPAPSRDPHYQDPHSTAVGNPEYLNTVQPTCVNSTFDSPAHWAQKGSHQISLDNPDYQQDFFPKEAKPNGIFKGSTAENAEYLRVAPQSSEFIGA

The term IC50 denotes the point on the concentration scale where inhibition reaches its midpoint.

Epidermal growth factor receptor (Homo sapiens, UniProt P00533), sequence (P00533 whole entry): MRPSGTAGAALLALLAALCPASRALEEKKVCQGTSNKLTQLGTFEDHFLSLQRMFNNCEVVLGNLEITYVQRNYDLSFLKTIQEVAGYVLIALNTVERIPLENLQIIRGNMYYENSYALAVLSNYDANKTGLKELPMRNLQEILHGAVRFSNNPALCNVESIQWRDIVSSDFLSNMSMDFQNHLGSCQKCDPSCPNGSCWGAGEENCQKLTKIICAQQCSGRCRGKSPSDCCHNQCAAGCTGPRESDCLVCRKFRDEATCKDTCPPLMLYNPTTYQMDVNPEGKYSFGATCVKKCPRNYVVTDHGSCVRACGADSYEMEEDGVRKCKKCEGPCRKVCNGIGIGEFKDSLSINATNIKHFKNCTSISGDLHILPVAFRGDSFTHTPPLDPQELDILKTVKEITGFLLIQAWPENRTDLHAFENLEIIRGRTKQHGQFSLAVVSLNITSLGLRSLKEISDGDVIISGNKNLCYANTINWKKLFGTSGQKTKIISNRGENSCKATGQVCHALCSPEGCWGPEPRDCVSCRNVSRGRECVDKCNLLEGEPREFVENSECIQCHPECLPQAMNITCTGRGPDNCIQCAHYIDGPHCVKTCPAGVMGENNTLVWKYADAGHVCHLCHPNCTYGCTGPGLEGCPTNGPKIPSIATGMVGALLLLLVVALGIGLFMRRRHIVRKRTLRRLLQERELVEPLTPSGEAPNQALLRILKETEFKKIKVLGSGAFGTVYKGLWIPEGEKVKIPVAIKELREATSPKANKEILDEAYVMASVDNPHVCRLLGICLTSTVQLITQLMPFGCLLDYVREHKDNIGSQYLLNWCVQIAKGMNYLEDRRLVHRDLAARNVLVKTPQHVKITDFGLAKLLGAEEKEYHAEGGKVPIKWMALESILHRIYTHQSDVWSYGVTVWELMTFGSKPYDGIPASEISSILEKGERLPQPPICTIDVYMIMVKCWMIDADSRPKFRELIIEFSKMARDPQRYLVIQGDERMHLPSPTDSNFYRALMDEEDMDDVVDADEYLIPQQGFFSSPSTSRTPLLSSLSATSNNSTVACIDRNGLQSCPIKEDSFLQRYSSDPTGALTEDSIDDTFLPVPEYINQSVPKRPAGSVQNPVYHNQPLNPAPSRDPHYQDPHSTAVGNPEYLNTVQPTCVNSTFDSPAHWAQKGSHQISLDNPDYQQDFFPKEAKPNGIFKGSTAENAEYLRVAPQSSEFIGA

Turning to `COc1ccc(-c2c3c4cc(OC)c(O)cc4[nH]c(=O)c3n3ccc4cc(O)c(OC)cc4c23)cc1O`, the values for the half-inhibitory concentration (IC50) in test [1] and in test [2] were 1.9 nM and 15.5 nM, respectively.

`COc1ccc(-c2c3c4cc(OC)c(OCCCN(C)C)cc4[nH]c(=O)c3n3ccc4cc(O)c(OC)cc4c23)cc1O`: the IC50 stood at 15.5 nM in test [3], 350 nM in test [1], 1040 nM in test [2] and 5.7 nM in test [4].

As to `COc1ccc(-c2c3c4cc(OCCCN(C)C)c(O)cc4[nH]c(=O)c3n3ccc4cc(O)c(OC)cc4c23)cc1O`, the concentration for half-maximal inhibition (IC50) is 23.6 nM in test [3] and 16.6 nM in test [4].

With `COc1ccc(-c2c3c4cc(O)c(OCCCN(C)C)cc4[nH]c(=O)c3n3ccc4cc(O)c(OC)cc4c23)cc1O`, the values for the IC50 in test [3] and in test [4] were 24.7 nM and 10.2 nM, respectively.

Consider `COc1ccc(-c2c3c4cc(OCCCN(C)C)c(OCCCN(C)C)cc4[nH]c(=O)c3n3ccc4cc(O)c(OC)cc4c23)cc1O`, for which the IC50 was 4.6 nM in test [3], 1360 nM in test [1], 2040 nM in test [2] and 1.7 nM in test [4].

Consider `COc1ccc(-c2c3c4cc(OC)c(OC)cc4[nH]c(=O)c3n3ccc4cc(O)c(OC)cc4c23)cc1O`, for which the half-inhibitory concentration (IC50) in test [3] is 259 nM; in test [4] it was 65.3 nM.
